# System: CD8 T cell response to the epitope AH1A5
# Experiment: Adjuvant mixed with DC-NILV encoding AH1A5 and administered together subcutaneously; ICS/FACS
# Type: in vivo, BALB/c mice
# Details: adjuvant mixed with DC-NILV AH1A5 1 μg p24, s.c.; 4 or 20 μg GLA, 4 μg LPS; spleen cells day 10
# Procedure: FIG. 2 illustrates the effect of two adjuvants, GLA and lipopolysaccharide (LPS), on the immune response to the CD8 T cell epitope AH1A5. The lentiviral vector encoding AH1A5 (SinVarl FUW AH1A5 (1 μg p24)) was mixed with PBS (control group), 4 μg GLA, 20 μg GLA, or 4 μg LPS and then administered subcutaneously (s.c.) to groups of BALB/C mice. After 10 days, spleen cells were isolated from animals in each group, and the CD8 T cell response was evaluated by determining the level of TNF-α and IFN-γ by intracellular cytokine staining (ICS) followed by fluorescence activated cell sorting (FACS). The values shown are the mean percentage ±SEM of CD8 T cells that are positive for IFN-γ. Data are also shown from spleen cells obtained from mice that were not injected with the lentiviral vector (no LV).
# The effect of two adjuvants, GLA and lipopolysaccharide (LPS), on the immune response to the CD8 T cell epitope AH1A5 was determined. DC-NILV encoding AH1A5 (1 μg p24) was mixed with PBS (control group), 4 μg GLA, 20 μg GLA, or 4 μg lipopolysaccaride (LPS) and then administered subcutaneously (s.c.) to groups of BALB/c mice. After 10 days, spleen cells were isolated from animals in each group, and the CD8 T cell response was evaluated by determining the level of TNF-α and IFN-γ by intracellular cytokine staining (ICS) followed by fluorescence activated cell sorting (FACS). […]
substance,measurement,value
lipopolysaccharide [LPS],"effect of coadministered adjuvant on vaccine-induced immune responses (CD8 T cells, TNF-α and IFN-γ)",inhibitory effect

# Reference: patent publication US20120263754A1, “Methods for Enhancing Immunogen Specific Immune Responses by Vectored Vaccines” (priority 2011, published 2012)
